Data as given in article PMC5368910 (BMC Pharmacology & Toxicology, 2017).
Where two headings read alike, the source gives them in different places.

How the values were obtained:
[1] = after the first single oral dose, both SAD and MAD groups
Experimental: Randomization was assigned by blinded study personnel and stratified by gender to achieve an equal number of male and female subjects in each cohort. Subjects aged 18–49 years and 50–75 years were equally distributed in each dosing cohort.
Any subject receiving at least one full dose of the study drug was included in the PK analysis population. PK analysis during the SAD study was conducted on serial plasma samples collected predose and at 30 min, 1, 2, 4, 6, 8, 12, 24, 48, and 72 h after dosing, and analyzed using a validated liquid chromatography-tandem mass spectrometry (LC/MS/MS) method, with a lower limit of quantification (LLOQ) of 1 ng/mL. […] The samples were analyzed using an API 5000 triple quadrupole mass spectrometer (Applied Biosystems/ScieEx, Concord, ON, Canada) using electrospray ionization in positive ion mode. Analyst^TM software (version 1.4.2., Applied Biosystems, Foster City, CA, USA) was used for data acquisition. In total, 8 calibration solutions with a range of 1.00 ng/mL to 1000 ng/mL were used as internal standards in addition to a blank. Inter-assay bias was determined to be –2.6 to 2.5% with inter-assay precision of 3.9 to 9.4%.
(§1) Plasma PK parameters were calculated using standard noncompartmental methods in a validated version of WinNonlin (version 5.2, Pharsight, Mountain View, CA, USA). All concentrations that were below the LLOQ prior to the first detectable concentration were assigned a value of 0. All concentrations that were below the LLOQ after the first quantifiable concentration were designated as missing and replaced with a period. Actual sample collection times were used in the analysis of the concentration versus time profiles for individual subjects. Integration of plasma concentrations versus time was conducted using the linear-up, log-down function in WinNonlin. The following parameters were determined: maximum plasma concentration (Cmax), time of Cmax (Tmax), area under the concentration-time curve (AUC) from 0 to last measurable plasma concentration (AUC0-t), AUC from 0 to infinity (AUC0-∞), percent of dose excreted in the urine, and terminal exponential half-life (t½).

[2] = MAD, 500 mg BID oral, plasma, LC/MS/MS, LLOQ 1 ng/mL, median (range)
Experimental: Subjects were dosed BID, once in the morning and once in the evening, for 14 consecutive days, with at least 8 ounces of water and approximately 1 h after breakfast and 1 h after dinner.
During the MAD study, serial plasma samples for PK analysis were collected predose and at 30 min, 3, 6, and 9 h after the morning dose on days 1 and 14, and before the morning dose on days 4, 7, 10, and 12 (trough levels). […] Samples were analyzed using the same bioanalytical LC/MS/MS method as in the SAD study (LLOQ of 1 ng/mL).
as §1

[3] = SAD, single oral dose, urine over a 7-day period, LC/MS/MS
Experimental: Any subject receiving at least one full dose of the study drug was included in the PK analysis population. PK analysis during the SAD study was conducted on serial plasma samples collected predose and at 30 min, 1, 2, 4, 6, 8, 12, 24, 48, and 72 h after dosing, and analyzed using a validated liquid chromatography-tandem mass spectrometry (LC/MS/MS) method, with a lower limit of quantification (LLOQ) of 1 ng/mL. Urine and stool samples were also collected during this period and analyzed using LC/MS/MS. Urine and feces were collected for 7 days after dose administration. The samples were analyzed using an API 5000 triple quadrupole mass spectrometer (Applied Biosystems/ScieEx, Concord, ON, Canada) using electrospray ionization in positive ion mode. […]
Plasma PK parameters were calculated using standard noncompartmental methods in a validated version of WinNonlin (version 5.2, Pharsight, Mountain View, CA, USA). […] All concentrations that were below the LLOQ after the first quantifiable concentration were designated as missing and replaced with a period. […] The following parameters were determined: maximum plasma concentration (Cmax), time of Cmax (Tmax), area under the concentration-time curve (AUC) from 0 to last measurable plasma concentration (AUC0-t), AUC from 0 to infinity (AUC0-∞), percent of dose excreted in the urine, and terminal exponential half-life (t½).

[4] = not given; remark: listed apart in the source
[5] = SAD, of the 32 subjects who received surotomycin
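Wherever Back pain (TEAE) is given: human subjects dosed twice daily for 14 days, safety tracked through day 21 follow-up via reported adverse events, examinations, vital signs, ECG and laboratory tests.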
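Wherever Diarrhea (TEAE) is given: single ascending dose cohorts, safety followed through day 8 via observed or reported adverse events, physical exam, vital signs, ECG and laboratory tests, all dosed subjects analysed.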
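Wherever General disorders and administration- site conditions (TEAE) is given: human subjects dosed twice daily for 14 days, safety tracked through day 21 follow-up via reported adverse events, examinations, vital signs, ECG and laboratory tests.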
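Wherever Headache (TEAE) is given: human subjects dosed twice daily for 14 days, safety tracked through day 21 follow-up via reported adverse events, examinations, vital signs, ECG and laboratory tests.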
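Wherever Investigations (TEAE) is given: single ascending dose cohorts, safety followed through day 8 via observed or reported adverse events, physical exam, vital signs, ECG and laboratory tests, all dosed subjects analysed.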
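Wherever Musculoskeletal and connective tissue disorders (TEAE) is given: human subjects dosed twice daily for 14 days, safety tracked through day 21 follow-up via reported adverse events, examinations, vital signs, ECG and laboratory tests.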
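Wherever Transaminase increased (TEAE) is given: single ascending dose cohorts, safety followed through day 8 via observed or reported adverse events, physical exam, vital signs, ECG and laboratory tests, all dosed subjects analysed.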
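Wherever serious AEs is given: single ascending dose cohorts, safety followed through day 8 via observed or reported adverse events, physical exam, vital signs, ECG and laboratory tests, all dosed subjects analysed.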

For `CCCCCc1ccc(/C(C)=C/C(=O)N[C@@H](Cc2c[nH]c3ccccc23)C(=O)N[C@H](CC(N)=O)C(=O)N[C@@H](CC(=O)O)C(=O)N[C@@H]2C(=O)NCC(=O)N[C@@H](CCCN)C(=O)N[C@@H](CC(=O)O)C(=O)N[C@H](C)C(=O)N[C@@H](CC(=O)O)C(=O)NCC(=O)N[C@H](CO)C(=O)N[C@@H]([C@H](C)CC(=O)O)C(=O)N[C@@H](CC(=O)c3ccccc3N)C(=O)O[C@@H]2C)cc1` [surotomycin], the “time of peak median plasma concentration after the first dose” value [1] was 6 to 12 h, the Tmax ([2]; day 1, cohort n = 8) was 6.0 (6.0–9.0) h and the Tmax ([2]; day 14 morning dose) was 6.0 (0.0–9.0) h. The “median cumulative amount of the administered dose recovered in the urine” value [3] was under 0.01%, the “At least one TEAE” value (SAD 500 mg (n = 8)) was 3 (37.5) n (%) and the “Diarrhea (TEAE)” value (SAD 500 mg (n = 8)) was 1 (12.5) n (%). The “Gastrointestinal disorders (TEAE)” value (SAD 500 mg (n = 8)) was 2 (25.0) n (%), the “Infections and infestations (TEAE)” value (SAD 500 mg (n = 8)) was 0 n (%) and the “Investigations (TEAE)” value (SAD 500 mg (n = 8)) was 0 n (%). The “Transaminase increased (TEAE)” value (SAD 500 mg (n = 8)) was 0 n (%), the “At least one TEAE” value (SAD 1000 mg (n = 8)) was 0 n (%) and the “Diarrhea (TEAE)” value (SAD 1000 mg (n = 8)) was 0 n (%). The “Gastrointestinal disorders (TEAE)” value (SAD 1000 mg (n = 8)) was 0 n (%), the “Infections and infestations (TEAE)” value (SAD 1000 mg (n = 8)) was 0 n (%) and the “Investigations (TEAE)” value (SAD 1000 mg (n = 8)) was 0 n (%). The “Transaminase increased (TEAE)” value (SAD 1000 mg (n = 8)) was 0 n (%), the “At least one TEAE” value (SAD 2000 mg (n = 8)) was 5 (62.5) n (%) and the “Diarrhea (TEAE)” value (SAD 2000 mg (n = 8)) was 3 (37.5) n (%). For the same compound, the “Gastrointestinal disorders (TEAE)” value (SAD 2000 mg (n = 8)) was 3 (37.5) n (%), the “Infections and infestations (TEAE)” value (SAD 2000 mg (n = 8)) was 0 n (%) and the “Investigations (TEAE)” value (SAD 2000 mg (n = 8)) was 1 (12.5) n (%). For the same compound, the “Transaminase increased (TEAE)” value (SAD 2000 mg (n = 8)) was 1 (12.5) n (%), the “At least one TEAE” value (SAD 4000 mg (n = 8)) was 3 (37.5) n (%) and the “Diarrhea (TEAE)” value (SAD 4000 mg (n = 8)) was 1 (12.5) n (%). For the same compound, the “Gastrointestinal disorders (TEAE)” value (SAD 4000 mg (n = 8)) was 1 (12.5) n (%), the “Infections and infestations (TEAE)” value (SAD 4000 mg (n = 8)) was 2 (25.0) n (%) and the “Investigations (TEAE)” value (SAD 4000 mg (n = 8)) was 1 (12.5) n (%). For the same compound, the “Transaminase increased (TEAE)” value (SAD 4000 mg (n = 8)) was 1 (12.5) n (%), the “serious AEs” value (SAD group, none discontinued due to AEs) was “No serious AEs” and the treatment-related diarrhea (SAD, all surotomycin subjects (n = 32)) was 5 (15.6%) n (%). For the same compound, the increased transaminases [5] was 2 (6.3%) n (%), the “subjects with AEs assessed as treatment-related” value [5] was 9 (28.1%) n (%) and the tolerability (SAD, single oral doses 500, 1000, 2000 or 4000 mg) was “well tolerated”. The “severity of reported AEs” value (SAD, single oral doses 500-4000 mg) was “mild to moderate”, the “At least one TEAE” value ([4]; MAD 250 mg BID (n = 8)) was 4 (50.0) n (%) and the “Back pain (TEAE)” value ([4]; MAD 250 mg BID (n = 8)) was 1 (12.5) n (%). For the same compound, the “Gastrointestinal disorders (TEAE)” value ([4]; MAD 250 mg BID (n = 8)) was 2 (25.0) n (%), the “General disorders and administration- site conditions (TEAE)” value ([4]; MAD 250 mg BID (n = 8)) was 0 n (%) and the “Headache (TEAE)” value ([4]; MAD 250 mg BID (n = 8)) was 1 (12.5) n (%). The “Infections and infestations (TEAE)” value ([4]; MAD 250 mg BID (n = 8)) was 0 n (%), the “Musculoskeletal and connective tissue disorders (TEAE)” value ([4]; MAD 250 mg BID (n = 8)) was 2 (25.0) n (%) and the “Nervous system disorders (TEAE)” value ([4]; MAD 250 mg BID (n = 8)) was 2 (25.0) n (%). For the same compound, the “Oropharyngeal pain (TEAE)” value ([4]; MAD 250 mg BID (n = 8)) was 0 n (%), the “Pruritus (TEAE)” value ([4]; MAD 250 mg BID (n = 8)) was 0 n (%) and the “Respiratory, thoracic, and mediastinal disorders (TEAE)” value ([4]; MAD 250 mg BID (n = 8)) was 0 n (%). For the same compound, the “Skin and subcutaneous tissue disorders (TEAE)” value ([4]; MAD 250 mg BID (n = 8)) was 0 n (%), the “At least one TEAE” value ([4]; MAD 500 mg BID (n = 8)) was 6 (75.0) n (%) and the “Back pain (TEAE)” value ([4]; MAD 500 mg BID (n = 8)) was 1 (12.5) n (%). For the same compound, the “Gastrointestinal disorders (TEAE)” value ([4]; MAD 500 mg BID (n = 8)) was 0 n (%), the “General disorders and administration- site conditions (TEAE)” value ([4]; MAD 500 mg BID (n = 8)) was 0 n (%) and the “Headache (TEAE)” value ([4]; MAD 500 mg BID (n = 8)) was 1 (12.5) n (%). The “Infections and infestations (TEAE)” value ([4]; MAD 500 mg BID (n = 8)) was 1 (12.5) n (%), the “Musculoskeletal and connective tissue disorders (TEAE)” value ([4]; MAD 500 mg BID (n = 8)) was 2 (25.0) n (%) and the “Nervous system disorders (TEAE)” value ([4]; MAD 500 mg BID (n = 8)) was 1 (12.5) n (%). For the same compound, the “Oropharyngeal pain (TEAE)” value ([4]; MAD 500 mg BID (n = 8)) was 1 (12.5) n (%), the “Pruritus (TEAE)” value ([4]; MAD 500 mg BID (n = 8)) was 1 (12.5) n (%) and the “Respiratory, thoracic, and mediastinal disorders (TEAE)” value ([4]; MAD 500 mg BID (n = 8)) was 2 (25.0) n (%). The “Skin and subcutaneous tissue disorders (TEAE)” value ([4]; MAD 500 mg BID (n = 8)) was 1 (12.5) n (%), the “At least one TEAE” value ([4]; MAD 1000 mg BID (n = 8)) was 5 (62.5) n (%) and the “Back pain (TEAE)” value ([4]; MAD 1000 mg BID (n = 8)) was 0 n (%).
